Results published in patent US20190351069A1, “Coating of Nanoparticle Surfaces with Cyclopeptides for Improving Delivery of Agents Via the Oral Route” (Ruprecht-Karls-Universität Heidelberg, priority 2016, published 2019).
Where a SMILES comes first, the peptide text is derived from it.

Assay: Stability of cell-penetrating peptides in simulated gastric and intestinal fluid (HPLC/MS)
Format: in vitro ADME
Experimental: Both CPPs (1 mg/mL in water) were diluted 1:1 (v/v) with either simulated gastric fluid or simulated intestinal fluid and incubated at 37° C. under constant shaking as described in the art. After 0, 15, 30 and 60 min, the samples were analyzed by HPLC/MS in order to detect the recovery of intact CPP and were compared in relation with the initial solution. • Cytotoxicity Assays • Cell Cultivation

With N=C(N)NCCC[C@@H]1NC(=O)[C@H](CS)NC(=O)[C@H](CCCNC(=N)N)NC(=O)[C@H](CCCNC(=N)N)NC(=O)[C@H](CCCNC(=N)N)NC(=O)[C@H](CCCNC(=N)N)NC(=O)[C@H](CCCNC(=N)N)NC(=O)[C@H](CCCNC(=N)N)NC(=O)[C@H](CCCNC(=N)N)NC(=O)[C@H](CCCNC(=N)N)NC1=O [cyclic CPP] (cyclo(RRRRRRRRRC); ring closure inferred) the “stability in intestinal fluid” value (over one hour) was “only a moderate loss”, the “stability in simulated gastric fluid” value (over one hour) was “high stability” and the remaining at 1 h, 0.5 mg/mL (simulated intestinal fluid, after one hour, 37° C., read-out: intact CPP) was 47.3%.
